# Reference: US20230099031A1, “BIFUNCTIONAL AGENTS FOR PROTEIN RECRUITMENT AND/OR DEGRADATION” (Orionis Biosciences, Inc., priority 2019, published 2023)
# Where a name gives a salt, the structure may show the parent alone.
# Target: T1, CRBN (Homo sapiens, UniProt Q96SW2)
# T1 construct: expressed in transfected cells; host or cells: HEK293T
# Test: Competition Assay: MAPPIT-like, competition with trimethoprim-lenalidomide hybrid ligand for binding to CRBN in HEK293T cells
# Format: cell-based
# Conditions: protocol and reagents of Example 1; read-out: IC50 Competition
# Excerpt: A bait protein (protein A) is expressed as a fusion protein in which it is genetically fused to an engineered intracellular receptor domain of the leptin receptor, which is itself fused to the extracellular domain of the erythropoietin (Epo) receptor. Binding of Epo ligand to the EpoR component results in activation of receptor-associated intracellular JAK2. However, activated JAK2 cannot activate the leptin receptor to trigger STAT3 binding and its phosphorylation because its tyrosine residues, normally phosphorylated by activated JAK2, have been mutated. Reconstitution of a JAK2 phosphorylatable STAT3 docking site is instead created through interaction of a protein B with protein A, whereby protein B is fused to a cytoplasmic domain of the gp130 receptor (which now harbors appropriate tyrosine resides recognized by the activated JAK2 kinase). Thus, physical interaction of protein A with protein B reconstitutes and Epo triggers JAK2-STAT3 signaling pathway activation. Activation of STAT3 can be monitored by introduction of a STAT3-responsive reporter gene, including a luciferase-encoding gene or a gene encoding a fluorescent marker such as GFP or some other type of fluorescent protein (EGF etc.). In this manner, the MAPPIT assay provides a versatile assay to assess such recombinant protein-protein interactions, or compound- or hybrid ligand-induced protein-protein interactions, in intact cells.
# Formation of the complex results in activation of a STAT-responsive luciferase reporter gene. That signal is set to 100% luciferase activity. In a separate sample set up, cells are prepared in the same manner but, in addition, co-incubated with a test compound whose interaction with CRBN is investigated. […] Increasing concentrations of test compound are assessed to determine CRBN binding efficiency as determined in this type of ligand competition experiment in living cells. Specificity of signal inhibition is assessed by a parallel experimental set up in which test compound effect is assessed for inhibition of signal generated by a control gp130 fusion protein (CTRL) that directly binds to the DHFR-fusion protein in the absence of hybrid ligand (i.e. a direct interaction of the proteins).
# In more detail, HEK293T cells are cultured in Dulbecco's modified Eagle's medium supplemented with 10% fetal calf serum, incubated at 37° C., 8% CO2. […] Data points represent the average luciferase activity of triplicate samples derived from cells treated with leptin+test compound for the REM2 control (CTRL) or cells treated with leptin+hybrid ligand+test compound (CRBN) relative to leptin (CTRL) or leptin+hybrid ligand (CRBN) only treated samples (the signals obtained in absence of added test compound for both cases is set at 100% of luciferase activity on y-axis). Error bars represent standard deviations. Curves are fit using 4-parameter nonlinear regression in […] PRISM software
row,SMILES,IC50
1,"Nc1cccc2c(=O)n(C3CCC(=O)NC3=O)nnc12 (stereo not shown) [Compound C35833, 3-(8-amino-4-oxo-1,2,3-benzotriazin-3-yl)piperidine-2,6-dione]",0.684 µM
2,"O=C1CCc2cc(C(=O)N3CCc4cccnc43)cnc2N1 [Compound C36128, 6-(2,3-dihydropyrrolo[2,3-b]pyridine-1-carbonyl)-3,4-dihydro-1H-1,8-naphthyridin-2-obe]",20.3 µM
3,"NC(=O)c1ccc2c(c1)C(=O)N(C1CCC(=O)NC1=O)C2 (stereo not shown) [Compound C39772, 2-(2,6-dioxo-3-piperidyl)-3-oxo-isoindoline-5-carboxamide]",13.8 µM
4,"O=C1CCC(Nc2cnc3ccccc3n2)C(=O)N1 (stereo not shown) [Compound C44292, 3-(quinoxalin-2-ylamino)piperidine-2,6-dione]",8.32 µM
5,"O=C1CCC(N2Cc3ccc(C(F)(F)F)cc3C2=O)C(=O)N1 (stereo not shown) [Compound C45748, 3-[1-oxo-6-(trifluoromethyl)isoindolin-2-yl]piperidine-2,6-dione]",0.953 µM
6,"Nc1cccc2c1CCN(C1CCC(=O)NC1=O)C2=O (stereo not shown) [Compound C47933, 3-(5-amino-1-oxo-3,4-dihydroisoquinolin-2-yl)piperidine-2,6-dione]",1.09 µM
7,"O=C(O)CNc1ccc2c(c1)C(=O)N(C1CCC(=O)NC1=O)C2 (stereo not shown) [Compound C47997, 2-[[2-(2,6-dioxo-3-piperidyl)-3-oxo-isoindolin-5-yl]amino]acetic acid]",9.1 µM
8,"N#Cc1cccc2c1C(=O)N(C1CCC(=O)NC1=O)C2 (stereo not shown) [Compound C48009, 2-(2,6-dioxo-3-piperidyl)-3-oxo-isoindoline-4-carbonitrile]",2.18 µM
9,"O=C1CCC(N2Cc3cccc(-c4ccccc4)c3C2=O)C(=O)N1 (stereo not shown) [Compound C48020, 3-(1-oxo-7-phenyl-isoindolin-2-yl)piperidine-2,6-dione]",0.546 µM
10,"O=C1N=CC(N2C(=O)c3ccccc3C2=O)C(=O)N1 (stereo not shown) [Compound C49278, 2-(2,6-dioxo-5H-pyrimidin-5-yl)isoindoline-1,3-dione]",45.4 µM
11,"CN(C)CC(=O)Nc1ccc2c(c1)C(=O)N(C1CCC(=O)NC1=O)C2 (stereo not shown) [Compound C49708, 2-(dimethylamino)-N-[2-(2,6-dioxo-3-piperidyl)-3-oxo-isoindolin-5-yl]acetamide]",0.752 µM
12,"O=C1CCC(N2C(=O)c3ccccc3C2C2=c3ccccc3=NC2)C(=O)N1 (stereo not shown) [Compound C49713, 3-[1-(2H-indol-3-yl)-3-oxo-isoindolin-2-yl]piperidine-2,6-dione]",6.74 µM
13,"O=C1CCC(Nc2ncccn2)C(=O)N1 (stereo not shown) [Compound C55468, 3-(pyrimidin-2-ylamino)piperidine-2,6-dione]",8.68 µM
14,"COC1c2ccccc2C(=O)N1C1CCC(=O)NC1=O (stereo not shown) [Compound C56572, 3-(1-methoxy-3-oxo-isoindolin-2-yl)piperidine-2,6-dione]",8.61 µM
15,"O=C1CCC(N2C(=O)C=C(c3ccccc3)C2=O)C(=O)N1 (stereo not shown) [Compound C64319, 3-(2,5-dioxo-3-phenyl-pyrrol-1-yl)piperidine-2,6-dione]",42.9 µM
16,"O=C1CCC(N2C(=O)CC3(Cc4ccccc4C3)C2=O)C(=O)N1 (stereo not shown) [Compound C64329, 1′-(2,6-dioxo-3-piperidyl)spiro[indane-2,3′-pyrrolidine]-2′,5′-dione]",15.1 µM
17,"O=C1CCC(N2C(=O)CC3(CCOCC3)C2=O)C(=O)N1 (stereo not shown) [Compound C64348, 2-(2,6-dioxo-3-piperidyl)-8-oxa-2-azaspiro[4.5]decane-1,3-dione]",12.9 µM

row,SMILES,IC50
1,"Cc1nc(N(C)C)cc2c1C(=O)N(C1CCC(=O)NC1=O)C2=O (stereo not shown) [Compound C64376, 6-(dimethylamino)-2-(2,6-dioxo-3-piperidyl)-4-methyl-pyrrolo[3,4-c]pyridine-1,3-dione]",3.95 µM
2,"NCc1ccc2c(c1)C(=O)N(C1CCC(=O)NC1=O)C2 (stereo not shown) [Compound C66979, 3-[6-(aminomethyl)-1-oxo-isoindolin-2-yl]piperidine-2,6-dione]",0.633 µM
3,"O=C1CC/C(=C/c2ccccc2)C(=O)N1 [Compound C68121, (3Z)-3-benzylidenepiperidine-2,6-dione]",6.5 µM
4,"Cc1cccc2c1C(=O)N(C1CCC(=O)NC1=O)S2(=O)=O (stereo not shown) [Compound C73349, 3-(4-methyl-1,1,3-trioxo-1,2-benzothiazol-2-yl)piperidine-2,6-dione]",4.95 µM
5,"COc1ccc(Br)c2c1C(=O)N(C1CCC(=O)NC1=O)C2 (stereo not shown) [Compound C74668, 3-(4-bromo-7-methoxy-1-oxo-isoindolin-2-yl)piperidine-2,6-dione]",0.00189 µM
6,"Cc1cccc2c1S(=O)(=O)N(C1CCC(=O)NC1=O)C2=O (stereo not shown) [Compound C75688, 3-(7-methyl-1,1,3-trioxo-1,2-benzothiazol-2-yl)piperidine-2,6-dione]",14.7 µM
7,"NC1Cc2ccccc2C1=O (stereo not shown) [Compound C75987, 2-aminoindan-1-one; hydrochloride]",11.2 µM
8,"O=C1CCC(N2Cc3cc(Nc4ncnc5sccc45)ccc3C2=O)C(=O)N1 (stereo not shown) [Compound C80370, 3-[1-oxo-5-(thieno[2,3-d]pyrimidin-4-ylamino)isoindolin-2-yl]piperidine-2,6-dione]",0.0109 µM
9,"Cn1ncc2c(Nc3ccc4c(c3)CN(C3CCC(=O)NC3=O)C4=O)ncnc21 (stereo not shown) [Compound C80374, 3-[5-[(1-methylpyrazolo[3,4-d]pyrimidin-4-yl)amino]-1-oxo-isoindolin-2-yl]piperidine-2,6-dione]",16.6 µM
10,"Nc1nccc(Nc2ccc3c(c2)CN(C2CCC(=O)NC2=O)C3=O)n1 (stereo not shown) [Compound C80375, 3-[5-[(2-aminopyrimidin-4-yl)amino]-1-oxo-isoindolin-2-yl]piperidine-2,6-dione]",2.06 µM
11,"Nc1nc(Nc2ccc3c(c2)CN(C2CCC(=O)NC2=O)C3=O)nc2sccc12 (stereo not shown) [Compound C80379, 3-[5-[(4-aminothieno[2,3-d]pyrimidin-2-yl)amino]-1-oxo-isoindolin-2-yl]piperidine-2,6-dione]",0.971 µM
12,"Cn1ncc2c(Nc3ccc4c(c3)C(=O)N(C3CCC(=O)NC3=O)C4)ncnc21 (stereo not shown) [Compound C80383, 3-[6-[(1-methylpyrazolo[3,4-d]pyrimidin-4-yl)amino]-1-oxo-isoindolin-2-yl]piperidine-2,6-dione]",0.148 µM
13,"Cc1cc(Nc2ccc3c(c2)C(=O)N(C2CCC(=O)NC2=O)C3)ncn1 (stereo not shown) [Compound C80384, 3-[6-[(6-methylpyrimidin-4-yl)amino]-1-oxo-isoindolin-2-yl]piperidine-2,6-dione]",0.179 µM
14,"O=C1CCC(N2Cc3ccc(Nc4cnc5ccccc5n4)cc3C2=O)C(=O)N1 (stereo not shown) [Compound C80386, 3-[1-oxo-6-(quinoxalin-2-ylamino)isoindolin-2-yl]piperidine-2,6-dione]",0.0674 µM
15,"Cn1ccnc(Nc2ccc3c(c2)C(=O)N(C2CCC(=O)NC2=O)C3)c1=O (stereo not shown) [Compound C80387, 3-[6-[(4-methyl-3-oxo-pyrazin-2-yl)amino]-1-oxo-isoindolin-2-yl]piperidine-2,6-dione]",0.0542 µM
16,"N#Cc1ccc(Nc2ccc3c(c2)C(=O)N(C2CCC(=O)NC2=O)C3)nn1 (stereo not shown) [Compound C80389, 6-[[2-(2,6-dioxo-3-piperidyl)-3-oxo-isoindolin-5-yl]amino]pyridazine-3-carbonitrile]",0.645 µM
17,"Cc1cc2[nH]cnc(Nc3ccc4c(c3)C(=O)N(C3CCC(=O)NC3=O)C4)c-2n1 (stereo not shown) [Compound C80390, 3-[6-[(6-methylpyrrolo[3,2-d]pyrimidin-4-yl)amino]-1-oxo-isoindolin-2-yl]piperidine-2,6-dione]",0.729 µM
